Legend:
CRAF = CRAF (Homo sapiens, UniProt P04049, Y340D/Y341D); test: Z'-LYTE kinase assay; type: biochemical; conditions: Table 1
MEK1 = MEK1 (Homo sapiens, UniProt Q02750); test: Z'-LYTE kinase assay; type: biochemical
COT = COT (Homo sapiens, UniProt P41279); test: Z'-LYTE kinase assay; type: biochemical
SRC = SRC (Homo sapiens, UniProt P12931); test: Z'-LYTE kinase assay; type: biochemical
LCK = LCK (Homo sapiens, UniProt P06239); test: Z'-LYTE kinase assay; type: biochemical
[1] = test system: panel of 63 protein kinases; test: Efficacy against a panel of protein kinases; type: biochemical; conditions: 1 μM, percent activity compared to DMSO
[2] = Pharmacokinetic studies, plasma, oral and intravenous dosing; type: in vivo, Balb/c mice; conditions: for bioavailability: Balb/c, mouse, plasma, po, 10 mg/kg; for area under the curve / plasma concentration: oral 10 mg/kg/day; for plasma concentration: 10 mg/kg/day
[3] = Single and repeat dose tolerability / oral toxicity; type: in vivo, CD-1 mice; conditions: for weight loss: 30 mg/kg for 4 days
[4] = test system: melanoma and colorectal cancer cell lines that are mutant for BRAF; test: Cell growth inhibition; type: cell-based; conditions: Figures 2A and 2B
[5] = test system: RAS mutant melanoma and colorectal cancer cells; test: Cell growth inhibition; type: cell-based; conditions: Figures 2A and 2B
[6] = test system: cancer cells that are wild-type for BRAF and NRAS; test: Cell growth inhibition; type: cell-based; conditions: Figure 2A, in general
SK-Mel 23 cells = test: Cell growth inhibition; type: cell-based; conditions: Figure 2A
[7] = test system: MEK and ERK in WM266.4 cells (BRAF mutant); test: pMEK/pERK immunoblot; type: cell-based; conditions: 24 hr
[8] = test system: MEK in NRAS mutant D04 cells; test: pMEK/pERK immunoblot; type: cell-based; conditions: 24 hr
[9] = test system: ERK activity in SK-Mel 23 cells; test: pERK immunoblot; type: cell-based; conditions: 1 μM; 4 hr
BRAF^V600E A375 cells = test: Cell proliferation assay; type: cell-based; conditions: CellTiter Glo
NRAS mutant D04 cells = test: Cell proliferation assay; type: cell-based; conditions: CellTiter Glo
[10] = test system: patient #2 cells (vemurafenib-resistant melanoma); test: Cell proliferation assay; type: cell-based
patient #3 tumor cells = test: Cell proliferation assay; type: cell-based; conditions: CellTiter Glo
[11] = test system: cell lines from patient #5 tumor; test: Cell proliferation assay; type: cell-based; conditions: CellTiter Glo
A375 cells = test: Colony formation; type: cell-based; conditions: 0.5 μM; 20 days
[12] = test system: BRAF^V600E A375 xenograft; test: Xenograft growth; type: in vivo, nude mice
[13] = test system: NRAS mutant D04 xenograft; test: Xenograft growth; type: in vivo; conditions: 20 mg/kg oral daily; nude mice
[14] = test system: A375/R xenograft (PLX4720-resistant A375); test: Xenograft growth; type: in vivo, nude mice; conditions: 20 mg/kg oral daily; for body weight: A375/R xenograft study; for xenograft growth: nude mice
[15] = test system: PLX4720-resistant PDX from patient #1; test: PDX growth; type: in vivo, NSG mice; conditions: PLX4720 45 mg/kg, CCT compounds 20 mg/kg daily gavage
[16] = test system: patient #2 cell xenograft; test: Xenograft growth; type: in vivo, nude mice; conditions: for body weight: 20 mg/kg oral daily, patient #2 xenograft study; for xenograft growth: PLX4720 90 mg/kg, CCT compounds 20 mg/kg oral daily, nude mice
patient #3 PDX = test: PDX growth; type: in vivo, NSG mice; conditions: for body weight: 20 mg/kg daily gavage, patient #3 PDX study; for PDX growth: PLX4720 45 mg/kg, CCT compounds 20 mg/kg daily gavage, NSG mice
[17] = test system: ERK and SRC in patient #3 PDX; test: pERK/pSFK immunoblot in PDX; type: in vivo, mice; conditions: PLX4720 45 mg/kg, CCT compounds 20 mg/kg daily gavage
patient #4 PDX = test: PDX growth; type: in vivo, NSG mice; conditions: for body weight: 20 mg/kg daily gavage, patient #4 PDX study; for PDX sensitivity: PLX4720 45 mg/kg, CCT compounds 20 mg/kg daily gavage, NSG mice
PDX from patient #5 = test: PDX growth; type: in vivo, NSG mice; conditions: for body weight: 20 mg/kg daily gavage, patient #5 PDX study; for PDX sensitivity compared with PLX4720: PLX4720 45 mg/kg, CCT compounds 20 mg/kg daily gavage, NSG mice
PDX from patient #13 = test: PDX growth; type: in vivo, NSG mice; conditions: 20 mg/kg daily gavage; patient #13 PDX study
[18] = test system: MEK, ERK and SRC/SFKs in patient #2 cells; test: pMEK, pERK, pSFK immunoblot; type: cell-based; conditions: 4 hr; for inhibition of SFKs: 0.5 µM, Figure S3B; for inhibition of MEK, ERK, and SRC: 1 μM
[19] = test system: caspase 3 and PARP cleavage in patient #2 cells; test: PARP and caspase 3 immunoblot; type: cell-based; conditions: 1 μM; 4 hr
BRAF = BRAF (Homo sapiens, UniProt P15056); test: Z'-LYTE kinase assay; type: biochemical
Sequence of BRAF (P15056 whole entry): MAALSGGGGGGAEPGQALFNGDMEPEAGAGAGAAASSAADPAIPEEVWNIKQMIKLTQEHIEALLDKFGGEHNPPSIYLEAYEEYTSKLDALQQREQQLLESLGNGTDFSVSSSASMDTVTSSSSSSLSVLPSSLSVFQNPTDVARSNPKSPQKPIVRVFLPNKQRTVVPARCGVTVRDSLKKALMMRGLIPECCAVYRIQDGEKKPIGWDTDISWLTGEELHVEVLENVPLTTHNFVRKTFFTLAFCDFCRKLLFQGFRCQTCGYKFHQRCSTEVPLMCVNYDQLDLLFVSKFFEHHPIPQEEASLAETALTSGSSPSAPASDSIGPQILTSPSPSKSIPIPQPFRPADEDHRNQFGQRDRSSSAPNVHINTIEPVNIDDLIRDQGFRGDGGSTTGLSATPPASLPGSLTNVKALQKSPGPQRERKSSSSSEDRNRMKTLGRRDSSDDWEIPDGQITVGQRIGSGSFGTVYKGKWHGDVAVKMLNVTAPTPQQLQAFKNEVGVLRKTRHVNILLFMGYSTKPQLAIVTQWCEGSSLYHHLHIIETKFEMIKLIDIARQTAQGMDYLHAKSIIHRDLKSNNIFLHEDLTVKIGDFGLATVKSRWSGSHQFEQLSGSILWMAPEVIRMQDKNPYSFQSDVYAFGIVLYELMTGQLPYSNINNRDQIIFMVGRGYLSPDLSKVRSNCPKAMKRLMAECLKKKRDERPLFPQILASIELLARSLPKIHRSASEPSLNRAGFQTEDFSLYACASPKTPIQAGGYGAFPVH

BRAF^T529N,V600E = test: BRAF kinase inhibition, gatekeeper mutant; type: biochemical
[20] = test system: Ba/F3 cells transformed with BRAF^T529N,V600E; test: Growth of Ba/F3 cells; type: cell-based; conditions: [3H]-thymidine incorporation
A375/R cells = test: Cell proliferation assay; type: cell-based; conditions: CellTiter Glo
[21] = 25 mg/kg daily for 19 days, CD-1 mice
[22] = 20 mg/kg/day oral, 7 days/week, nude mice

Sequence of SRC (P12931 whole entry): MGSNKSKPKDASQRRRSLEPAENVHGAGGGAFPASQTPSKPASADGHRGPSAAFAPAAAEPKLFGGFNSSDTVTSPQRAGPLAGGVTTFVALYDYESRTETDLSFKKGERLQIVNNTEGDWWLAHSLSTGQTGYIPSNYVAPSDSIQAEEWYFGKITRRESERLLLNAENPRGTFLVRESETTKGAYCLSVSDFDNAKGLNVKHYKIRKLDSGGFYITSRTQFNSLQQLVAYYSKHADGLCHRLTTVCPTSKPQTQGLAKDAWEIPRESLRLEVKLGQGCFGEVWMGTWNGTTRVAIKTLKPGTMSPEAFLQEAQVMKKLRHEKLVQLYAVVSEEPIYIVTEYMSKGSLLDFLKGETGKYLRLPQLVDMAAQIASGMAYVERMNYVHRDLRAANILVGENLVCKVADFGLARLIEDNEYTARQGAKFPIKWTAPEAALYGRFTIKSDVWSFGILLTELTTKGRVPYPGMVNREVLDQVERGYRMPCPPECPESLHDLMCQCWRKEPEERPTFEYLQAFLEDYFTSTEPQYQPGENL
Sequence of MEK1 (Q02750 whole entry): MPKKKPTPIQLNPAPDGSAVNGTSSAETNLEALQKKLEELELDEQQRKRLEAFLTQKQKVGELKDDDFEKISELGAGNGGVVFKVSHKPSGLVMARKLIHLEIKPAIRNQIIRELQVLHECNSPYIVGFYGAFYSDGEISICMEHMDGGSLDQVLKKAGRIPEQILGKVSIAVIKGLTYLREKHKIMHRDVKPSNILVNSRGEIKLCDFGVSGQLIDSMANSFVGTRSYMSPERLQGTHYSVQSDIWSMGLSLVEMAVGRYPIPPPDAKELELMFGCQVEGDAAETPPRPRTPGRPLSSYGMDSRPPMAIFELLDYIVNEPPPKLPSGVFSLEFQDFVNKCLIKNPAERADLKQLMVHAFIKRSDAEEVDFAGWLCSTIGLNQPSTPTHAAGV
Sequence of CRAF (P04049 306-648 Y340D/Y341D limits assumed): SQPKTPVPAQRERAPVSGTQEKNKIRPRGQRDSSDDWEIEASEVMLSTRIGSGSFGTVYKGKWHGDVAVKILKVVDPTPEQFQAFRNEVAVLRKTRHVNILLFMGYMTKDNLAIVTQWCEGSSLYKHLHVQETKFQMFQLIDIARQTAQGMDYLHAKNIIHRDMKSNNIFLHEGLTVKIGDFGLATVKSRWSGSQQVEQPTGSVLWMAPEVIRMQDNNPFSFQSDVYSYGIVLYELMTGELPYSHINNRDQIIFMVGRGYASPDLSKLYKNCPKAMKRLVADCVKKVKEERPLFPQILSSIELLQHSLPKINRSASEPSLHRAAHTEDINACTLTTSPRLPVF
Sequence of COT (P41279 whole entry): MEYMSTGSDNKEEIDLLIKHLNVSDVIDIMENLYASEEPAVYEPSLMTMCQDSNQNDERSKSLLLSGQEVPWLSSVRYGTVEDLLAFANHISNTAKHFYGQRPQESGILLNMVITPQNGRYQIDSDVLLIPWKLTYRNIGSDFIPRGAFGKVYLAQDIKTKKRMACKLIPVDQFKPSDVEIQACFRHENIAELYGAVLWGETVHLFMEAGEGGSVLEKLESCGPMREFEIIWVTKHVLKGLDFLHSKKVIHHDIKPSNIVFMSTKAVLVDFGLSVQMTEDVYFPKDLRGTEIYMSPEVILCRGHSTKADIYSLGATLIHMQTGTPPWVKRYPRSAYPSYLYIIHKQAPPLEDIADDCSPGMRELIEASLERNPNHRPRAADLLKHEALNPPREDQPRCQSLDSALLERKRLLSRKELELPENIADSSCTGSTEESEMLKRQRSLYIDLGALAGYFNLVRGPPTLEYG
Sequence of LCK (P06239 whole entry): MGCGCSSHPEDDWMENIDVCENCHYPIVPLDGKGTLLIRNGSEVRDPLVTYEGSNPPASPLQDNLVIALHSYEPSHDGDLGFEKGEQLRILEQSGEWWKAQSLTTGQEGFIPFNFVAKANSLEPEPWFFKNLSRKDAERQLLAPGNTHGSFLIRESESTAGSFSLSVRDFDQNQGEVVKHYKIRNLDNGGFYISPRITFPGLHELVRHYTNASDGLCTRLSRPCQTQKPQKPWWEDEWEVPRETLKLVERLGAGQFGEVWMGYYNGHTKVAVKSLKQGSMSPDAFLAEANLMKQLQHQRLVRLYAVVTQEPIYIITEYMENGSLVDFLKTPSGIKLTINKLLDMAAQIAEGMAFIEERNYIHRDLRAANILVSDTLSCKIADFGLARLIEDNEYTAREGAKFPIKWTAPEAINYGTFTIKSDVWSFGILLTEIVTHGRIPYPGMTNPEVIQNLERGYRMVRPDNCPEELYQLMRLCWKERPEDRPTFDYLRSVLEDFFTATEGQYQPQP

CC(C)(C)c1cc(NC(=O)Nc2ccc(Oc3ccnc4[nH]c(=O)cnc34)cc2F)n(-c2ccccc2)n1 [CCT196969]
IC50 (CRAF): 10 nM | IC50 (MEK1): > 10000 nM | IC50 (COT): > 10000 nM | IC50 (SRC; IC50 SRC, Table 1): 30 nM | IC50 (LCK): 14 nM | kinases inhibited in a panel of protein kinases [1]: only inhibit SRC, LCK, and the p38 mitogen-activated protein kinases (MAPKs) | bioavailability [2]: ~55% | area under the curve [2]: ~416,000 nM.hr | plasma concentration ([2]; at 24 hr): ~1000 nM | clinical signs and body weight ([3]; 20 mg/kg daily × 24 days, CD-1 mice): no clinical signs or body weight loss | body weight and food intake [3, 21]: did not show any body weight loss or reduction in food intake | clinical signs [3, 21]: tachypnoea with decreased activity and excitation | mortality [3, 21]: did not observe any mortality | microscopical examination of tissues ([3]; 25 mg/kg daily for 19 days, end of the study): did not identify any treatment-related changes | weight loss ([3]; oral gavage): do not cause significant weight loss | clinical signs / adverse effects ([3]; single dose 20 mg/kg, oral gavage, CD-1 mice): no observed adverse effects | body weight ([3]; single dose 40 mg/kg, oral gavage, CD-1 mice): no effect on body weight | clinical signs ([3]; single dose 40 mg/kg, oral gavage, CD-1 mice, 1 hr after dosing): slight, transient tachypnoea | activity against BRAF mutant cell lines [4]: active | activity against RAS mutant cells [5]: also active | activity against BRAF and NRAS wild-type cancer cells [6]: not active | sensitivity of SK-Mel 23 cells (SK-Mel 23 cells): sensitive | inhibition of MEK and ERK [7]: inhibit MEK and ERK | effect on MEK in NRAS mutant cells [8]: inhibit rather than activate MEK | ERK activity in SK-Mel 23 cells [9]: sensitive | growth inhibition of BRAF mutant melanoma cells, compared with PLX4720 (BRAF^V600E A375 cells): more potently than PLX4720 | NRAS mutant cell growth inhibition, compared with PLX4720 (NRAS mutant D04 cells): more efficiently than does PLX4720 | cell line sensitivity ([10]; CellTiter Glo): sensitive | growth inhibition compared with PLX4720, ARQ736, RAF265, MLN2480 ([10]; CellTiter Glo, Figure S3C): more potently than any of the other inhibitors | cell sensitivity (patient #3 tumor cells): sensitive | cell sensitivity compared with PLX4720 [11]: more sensitive | colony formation under continual exposure (A375 cells): no cells are able to grow | xenograft growth ([12]; 10 mg/kg/day, data not shown): also effective | xenograft growth [12, 22]: tumor regression | xenograft growth [13]: inhibit the growth | body weight [14]: without causing any body weight loss | xenograft growth [14]: inhibit the growth | PDX sensitivity [15]: remains sensitive | body weight [16]: without causing any body weight loss | xenograft growth [16]: complete inhibition | body weight (patient #3 PDX): without causing body weight loss | PDX growth (patient #3 PDX): tumor regression | inhibition of ERK and SRC in PDX [17]: inhibit ERK and SRC | body weight (patient #4 PDX): do not cause body weight loss | PDX sensitivity (patient #4 PDX): sensitive | body weight (PDX from patient #5): did not observe any loss in body weight | PDX sensitivity compared with PLX4720 (PDX from patient #5): more sensitive | body weight (PDX from patient #13): no body weight loss was observed | inhibition of SFKs [18]: also inhibit SFKs | inhibition of MEK, ERK, and SRC [18]: inhibit MEK, ERK, and SRC | caspase 3 and PARP cleavage (apoptosis) [19]: induce caspase 3 and PARP cleavage

CSc1cc(Oc2ccnc3[nH]c(=O)cnc23)ccc1NC(=O)Nc1cc(C(C)(C)C)nn1-c1ccccc1 [CCT241161]
IC50 (BRAF): 252 nM | IC50 (CRAF): 6 nM | IC50 (MEK1): > 10000 nM | IC50 (COT): > 10000 nM | IC50 (SRC; inhibits SRC at): 15 nM | IC50 (LCK): 3 nM | kinases inhibited in a panel of protein kinases [1]: only inhibit SRC, LCK, and the p38 mitogen-activated protein kinases (MAPKs) | fold less active against BRAF^T529N,V600E than BRAF^V600E (BRAF^T529N,V600E): 42 fold | fold less sensitive, Ba/F3 cells transformed with BRAF^T529N,V600E vs BRAF^V600E [20]: 19 fold | bioavailability [2]: ~55% | area under the curve [2]: ~275,000 nM.hr | plasma concentration ([2]; at 14 hr): ~1000 nM | weight loss ([3]; oral gavage): do not cause significant weight loss | activity against BRAF mutant cell lines [4]: active | activity against RAS mutant cells [5]: also active | activity against BRAF and NRAS wild-type cancer cells [6]: not active | sensitivity of SK-Mel 23 cells (SK-Mel 23 cells): sensitive | inhibition of MEK and ERK [7]: inhibit MEK and ERK | effect on MEK in NRAS mutant cells [8]: inhibit rather than activate MEK | ERK activity in SK-Mel 23 cells [9]: sensitive | growth inhibition of BRAF mutant melanoma cells, compared with PLX4720 (BRAF^V600E A375 cells): more potently than PLX4720 | NRAS mutant cell growth inhibition, compared with PLX4720 (NRAS mutant D04 cells): more efficiently than does PLX4720 | sensitivity of PLX4720-resistant A375 cells (A375/R cells): still sensitive | cell line sensitivity ([10]; CellTiter Glo): sensitive | cell sensitivity (patient #3 tumor cells): sensitive | cell sensitivity compared with PLX4720 [11]: more sensitive | colony formation under continual exposure (A375 cells): no cells are able to grow | xenograft growth [12, 22]: tumor regression | xenograft growth [13]: inhibit the growth | body weight [14]: without causing any body weight loss | xenograft growth [14]: inhibit the growth | PDX sensitivity [15]: remains sensitive | body weight [16]: without causing any body weight loss | xenograft growth [16]: complete inhibition | body weight (patient #3 PDX): without causing body weight loss | PDX growth (patient #3 PDX): tumor regression | inhibition of ERK and SRC in PDX [17]: inhibit ERK and SRC | body weight (patient #4 PDX): do not cause body weight loss | PDX sensitivity (patient #4 PDX): sensitive | body weight (PDX from patient #5): did not observe any loss in body weight | PDX sensitivity compared with PLX4720 (PDX from patient #5): more sensitive | body weight (PDX from patient #13): no body weight loss was observed | inhibition of SFKs [18]: also inhibit SFKs | inhibition of MEK, ERK, and SRC [18]: inhibit MEK, ERK, and SRC | caspase 3 and PARP cleavage (apoptosis) [19]: induce caspase 3 and PARP cleavage

CCCS(=O)(=O)Nc1ccc(F)c(C(=O)c2c[nH]c3ncc(Cl)cc23)c1F [PLX4720, reference compound]
cell line sensitivity ([10]; CellTiter Glo): resistant | cell sensitivity (patient #3 tumor cells): not inhibited | PDX sensitivity [15]: resistance | xenograft growth [16]: resistant | PDX growth (patient #3 PDX): neither does it inhibit the growth | inhibition of ERK and SRC in PDX [17]: does not inhibit ERK or SRC | PDX sensitivity (patient #4 PDX): resistant | inhibition of MEK, ERK, and SRC [18]: does not | caspase 3 and PARP cleavage (apoptosis) [19]: does not

C[S+]([O-])c1ccc(-c2nc(-c3ccncc3)c(-c3ccc(F)cc3)[nH]2)cc1 (stereo not drawn) [SB203580]
cooperation with the pan-RAF inhibitors RAF265 or MLN2480 ([10]; 10 µM SB203580 in combination, Figure S3E): does not cooperate

COc1cc2ncnc(Nc3ccc(Oc4ccccc4)cc3)c2cc1OC [SRC inhibitor 1]
effect in combination with TAK632 ([10]; 40 µM SRC Inhibitor 1 with TAK632, Figure S3D): increases the activity of the pan-RAF inhibitor TAK632 | activity alone ([10]; CellTiter Glo, Figure S3D): inactive alone
